Assay results taken from PubChem BioAssay AID1963846 (Molecular Pharmacology Branch, DTP, NCI, 2024).

Tested on: 454973-116-R2-J3-PDC complex spheroid viability
Assay: Anticancer human tumor 454973-116-R2-J3-PDC patient-derived pancreatic carcinoma cell line growth inhibition [POLQ]
Details: for IC50: curve of first compound; for viability, T/C: stronger effect = lower value; active = viability on the fitted dose curve at most 10% of control; inactive = the rest
Method in brief: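 PDC + HUVEC + MSC complex spheroids; POLQ inhibitors ± partner drugs; top conc. at/near clinical Cmax, else 10 microM (SN-38 1 microM), half-log dilutions; 37 degrees C, 5% CO2.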

[1] = second compound 0.0316 µM, first compound 0.0316 µM
[2] = second compound 0.0316 µM, first compound 0.1 µM
[3] = second compound 0.1 µM, first compound 0.0316 µM
[4] = second compound 0.1 µM, first compound 0.1 µM
[5] = second compound 0.316 µM, first compound 0.0316 µM
[6] = second compound 0.316 µM, first compound 0.1 µM
[7] = second compound 1 µM, first compound 0.0316 µM
[8] = second compound 1 µM, first compound 0.1 µM
[9] = second compound 3.16 µM, first compound 0.0316 µM
[10] = second compound 3.16 µM, first compound 0.1 µM
[11] = second compound 10 µM, first compound 0.0316 µM
[12] = second compound 10 µM, first compound 0.1 µM
[13] = second compound 0.0316 µM, first compound 0.316 µM
[14] = second compound 0.0316 µM, first compound 1 µM
[15] = second compound 0.0316 µM, first compound 3.16 µM
[16] = second compound 0.0316 µM, first compound 10 µM
[17] = second compound 0.1 µM, first compound 0.316 µM
[18] = second compound 0.1 µM, first compound 1 µM
[19] = second compound 0.1 µM, first compound 3.16 µM
[20] = second compound 0.1 µM, first compound 10 µM
[21] = second compound 0.316 µM, first compound 0.316 µM
[22] = second compound 0.316 µM, first compound 1 µM
[23] = second compound 0.316 µM, first compound 3.16 µM
[24] = second compound 0.316 µM, first compound 10 µM
[25] = second compound 1 µM, first compound 0.316 µM
[26] = second compound 1 µM, first compound 1 µM
[27] = second compound 1 µM, first compound 3.16 µM
[28] = second compound 1 µM, first compound 10 µM
[29] = second compound 3.16 µM, first compound 0.316 µM
[30] = second compound 3.16 µM, first compound 1 µM
[31] = second compound 3.16 µM, first compound 3.16 µM
[32] = second compound 3.16 µM, first compound 10 µM
[33] = second compound 10 µM, first compound 0.316 µM
[34] = second compound 10 µM, first compound 1 µM
[35] = second compound 10 µM, first compound 3.16 µM
[36] = second compound 10 µM, first compound 10 µM
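Note: spheroids exposed to drugs for seven days before measurement.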
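Throughout, for viability, T/C: percent viability relative to DMSO vehicle control wells taken as 100%.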

Cn1ncnc1[C@H]1c2n[nH]c(=O)c3cc(F)cc(c23)N[C@@H]1c1ccc(F)cc1 + COC1C(OC(N)=O)C(O)C(Oc2ccc3c(O)c(NC(=O)c4ccc(O)c(CC=C(C)C)c4)c(=O)oc3c2C)OC1(C)C
> 100 nM: IC50 (second compound 0.0316 µM) | IC50 (second compound 0.1 µM) | IC50 (second compound 0.316 µM) | IC50 (second compound 1 µM) | IC50 (second compound 3.16 µM) | IC50 (second compound 10 µM)
inactive: viability, T/C (second compound 0.0316 µM, first compound 0.000316 µM) 100% | viability, T/C (second compound 0.0316 µM, first compound 0.001 µM) 111% | viability, T/C (second compound 0.0316 µM, first compound 0.00316 µM) 102% | viability, T/C (second compound 0.0316 µM, first compound 0.01 µM) 109% | viability, T/C [1] 95.1% | viability, T/C [2] 83.4% | viability, T/C (second compound 0.1 µM, first compound 0.000316 µM) 102% | viability, T/C (second compound 0.1 µM, first compound 0.001 µM) 112% | viability, T/C (second compound 0.1 µM, first compound 0.00316 µM) 105% | viability, T/C (second compound 0.1 µM, first compound 0.01 µM) 104% | viability, T/C [3] 98.5% | viability, T/C [4] 90.5% | viability, T/C (second compound 0.316 µM, first compound 0.000316 µM) 112% | viability, T/C (second compound 0.316 µM, first compound 0.001 µM) 114% | viability, T/C (second compound 0.316 µM, first compound 0.00316 µM) 105% | viability, T/C (second compound 0.316 µM, first compound 0.01 µM) 100% | viability, T/C [5] 93.5% | viability, T/C [6] 83.3% | viability, T/C (second compound 1 µM, first compound 0.000316 µM) 109% | viability, T/C (second compound 1 µM, first compound 0.001 µM) 102% | viability, T/C (second compound 1 µM, first compound 0.00316 µM) 107% | viability, T/C (second compound 1 µM, first compound 0.01 µM) 102% | viability, T/C [7] 93.1% | viability, T/C [8] 82.5% | viability, T/C (second compound 3.16 µM, first compound 0.000316 µM) 107% | viability, T/C (second compound 3.16 µM, first compound 0.001 µM) 111% | viability, T/C (second compound 3.16 µM, first compound 0.00316 µM) 104% | viability, T/C (second compound 3.16 µM, first compound 0.01 µM) 100% | viability, T/C [9] 104% | viability, T/C [10] 88.9% | viability, T/C (second compound 10 µM, first compound 0.000316 µM) 101% | viability, T/C (second compound 10 µM, first compound 0.001 µM) 96% | viability, T/C (second compound 10 µM, first compound 0.00316 µM) 98.3% | viability, T/C (second compound 10 µM, first compound 0.01 µM) 103% | viability, T/C [11] 87.2% | viability, T/C [12] 78.1%

CC1COCCN1c1cc(-c2ccnn2C)c2ccnc(-c3ccn[nH]3)c2n1 (stereo unspecified) + Cc1cccc(N(C)C(=O)C2C(O)CCN2c2nc(C)cc(C(F)(F)F)c2C#N)c1
198 nM: IC50 (second compound 0.316 µM)
192 nM: IC50 (second compound 3.16 µM)
207 nM: IC50 (second compound 0.0316 µM)
inactive: viability, T/C [1] 95.3% | viability, T/C [2] 73.4% | viability, T/C [13] 37% | viability, T/C [14] 21.7% | viability, T/C [15] 22.3% | viability, T/C [16] 25.4% | viability, T/C [3] 92.6% | viability, T/C [4] 74.4% | viability, T/C [17] 35% | viability, T/C [18] 20.8% | viability, T/C [19] 21.3% | viability, T/C [20] 27.8% | viability, T/C [5] 97.2% | viability, T/C [6] 73.3% | viability, T/C [21] 34.5% | viability, T/C [22] 20% | viability, T/C [23] 20.1% | viability, T/C [24] 25% | viability, T/C [7] 105% | viability, T/C [8] 71.7% | viability, T/C [25] 35.3% | viability, T/C [26] 21.3% | viability, T/C [27] 22% | viability, T/C [28] 25.4% | viability, T/C [9] 113% | viability, T/C [10] 71.8% | viability, T/C [29] 34.1% | viability, T/C [30] 21.7% | viability, T/C [31] 21.8% | viability, T/C [32] 26.4% | viability, T/C [11] 97.9% | viability, T/C [12] 67.7% | viability, T/C [33] 34.2% | viability, T/C [34] 19.5% | viability, T/C [35] 24.4% | viability, T/C [36] 23.1%
181 nM: IC50 (second compound 10 µM)
202 nM: IC50 (second compound 0.1 µM)
195 nM: IC50 (second compound 1 µM)

CC(C)n1c(=O)n(C)c2cnc3cc(F)c(-c4ccc(OCCCN5CCCCC5)nc4)cc3c21 + Nc1ccc(C#CCN(C(=O)Cc2ncc(C(F)(F)F)cc2C(F)(F)F)c2ccc(F)cc2)nn1
> 10000 nM: IC50 (second compound 0.0316 µM) | IC50 (second compound 0.1 µM) | IC50 (second compound 0.316 µM) | IC50 (second compound 1 µM) | IC50 (second compound 3.16 µM) | IC50 (second compound 10 µM)
inactive: viability, T/C [1] 101% | viability, T/C [2] 96% | viability, T/C [13] 101% | viability, T/C [14] 96.7% | viability, T/C [15] 102% | viability, T/C [16] 75.8% | viability, T/C [3] 99.3% | viability, T/C [4] 100% | viability, T/C [17] 103% | viability, T/C [18] 115% | viability, T/C [19] 99.6% | viability, T/C [20] 76.1% | viability, T/C [5] 102% | viability, T/C [6] 102% | viability, T/C [21] 117% | viability, T/C [22] 103% | viability, T/C [23] 101% | viability, T/C [24] 83.8% | viability, T/C [7] 114% | viability, T/C [8] 106% | viability, T/C [25] 108% | viability, T/C [26] 114% | viability, T/C [27] 106% | viability, T/C [28] 74.7% | viability, T/C [9] 111% | viability, T/C [10] 113% | viability, T/C [29] 105% | viability, T/C [30] 114% | viability, T/C [31] 101% | viability, T/C [32] 83.8% | viability, T/C [11] 123% | viability, T/C [12] 107% | viability, T/C [33] 114% | viability, T/C [34] 114% | viability, T/C [35] 104% | viability, T/C [36] 76.9%
